# In patent publication US9227967B2, “Inhibitor compounds of semicarbazide-sensitive amine oxidases” (Proximagen Limited, priority 2010, dated 2016):
# Where a name gives a salt, the structure may show the parent alone.
# Target: T1, human SSAO (Homo sapiens, UniProt Q16853)
# T1 construct: made in house
# T1 sequence (Q16853 29-763 limits assumed): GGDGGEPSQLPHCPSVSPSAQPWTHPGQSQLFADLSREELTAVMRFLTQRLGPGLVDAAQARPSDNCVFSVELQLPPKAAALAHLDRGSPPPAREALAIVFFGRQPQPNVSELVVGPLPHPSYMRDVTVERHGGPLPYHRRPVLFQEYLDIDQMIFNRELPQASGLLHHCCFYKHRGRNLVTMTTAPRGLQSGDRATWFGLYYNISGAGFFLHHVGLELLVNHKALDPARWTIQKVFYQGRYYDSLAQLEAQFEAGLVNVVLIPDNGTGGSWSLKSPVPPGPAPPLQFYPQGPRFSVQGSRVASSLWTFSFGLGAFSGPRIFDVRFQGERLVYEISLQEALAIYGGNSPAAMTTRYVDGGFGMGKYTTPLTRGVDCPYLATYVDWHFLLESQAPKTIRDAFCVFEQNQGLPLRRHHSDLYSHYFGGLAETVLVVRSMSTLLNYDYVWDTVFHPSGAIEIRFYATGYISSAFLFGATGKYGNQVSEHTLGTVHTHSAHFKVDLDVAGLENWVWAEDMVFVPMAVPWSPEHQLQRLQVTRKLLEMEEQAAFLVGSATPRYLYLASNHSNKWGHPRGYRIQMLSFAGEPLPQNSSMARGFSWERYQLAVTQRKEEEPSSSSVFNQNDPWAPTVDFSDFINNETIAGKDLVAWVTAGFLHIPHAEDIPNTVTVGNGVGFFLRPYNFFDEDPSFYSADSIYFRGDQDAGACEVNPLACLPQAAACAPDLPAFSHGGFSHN
# Test: SSAO enzyme inhibition assay (benzylamine substrate; HRP-coupled hydrogen peroxide detection or 14C-benzaldehyde detection)
# Type: biochemical
# Details: purified recombinantly expressed human SSAO, benzylamine as substrate, r.t.; read-out: SSAO inhibitory activity IC50
# Experimental: All primary assays were performed at r.t. with purified recombinantly expressed human SSAO. Enzyme was prepared essentially as described in Öhman et al. (Protein Expression and Purification 46 (2006) 321-331). In addition, secondary- and selectivity assays were performed using SSAO prepared from various tissues or purified rat recombinant SSAO. The enzyme activity was assayed with benzylamine as substrate by measuring either benzaldehyde production, using ^14C-labeled substrate, or by utilizing the production of hydrogen peroxide in a horseradish peroxidise (HRP) coupled reaction. Briefly, test compounds were dissolved in dimethyl sulfoxide (DMSO) to a concentration of 10 mM. Dose-response measurements were assayed by either creating 1:10 serial dilutions in DMSO to produce a 7 point curve or by making 1:3 serial dilutions in DMSO to produce 11 point curves. The top concentrations were adjusted depending on the potency of the compounds and subsequent dilution in reaction buffer yielded a final DMSO concentration ≦2%.
# In a horseradish peroxidise (HRP) coupled reaction, hydrogen peroxide oxidation of 10-acetyl-3,7-dihydroxyphenoxazine produced resorufin, which is a highly fluorescent compound (Zhout and Panchuk-Voloshina. Analytical Biochemistry 253 (1997) 169-174; Amplex® Red Hydrogen Peroxide/peroxidise Assay kit, Invitrogen A22188). Enzyme and compounds in 50 mM sodium phosphate, pH 7.4 were set to pre-incubate in flat-bottomed microtiter plates for approximately 15 minutes before initiating the reaction by addition of a mixture of HRP, benzylamine and Amplex reagent. Benzylamine concentration was fixed at a concentration corresponding to the Michaelis constant, determined using standard procedures. Fluorescence intensity was then measured at several time points during 1-2 hours, exciting at 544 nm n and reading the emission at 590 nm. For the human SSAO assay final concentrations of the reagents in the assay wells were: SSAO enzyme 1 μg/ml, benzylamine 100 μM, Amplex reagent 20 μM, HRP 0.1 U/mL and varying concentrations of test compound. The inhibition was measured as % decrease of the signal compared to a control without inhibitor (only diluted DMSO). The background signal from a sample containing no SSAO enzyme was subtracted from all data points. Data was fitted to a four parameter logistic model and IC50 values were calculated using the GraphPad Prism 4 or XLfit 4 programs.
# SSAO activity was assayed using 14C-labeled benzylamine and analysed by measuring radioactive benzaldehyde. In a white 96-well optiplate (Packard), 20 μL of diluted test compound was pre-incubated at r.t. with 20 μL SSAO enzyme for approximately 15 minutes with continuous agitation. All dilutions were made with PBS. The reaction was initiated by adding 20 μL of the benzylamine substrate solution containing [7-14C] Benzylamine hydrochloride (CFA589, GE Healthcare). The plate was incubated for 1 hour as above after which the reaction was stopped by acidification (10 μL 1 M HCl). Then 90 μL Micro Scint-E solution (Perkin-Elmer) was added to each well and the plate was continuously mixed for 15 minutes. Phase separation occurred instantly and activity was read in a Topcount scintillation counter (Perkin-Elmer). In the final reaction well, human recombinant SSAO concentration was 10 μg/ml. In order to optimize sensitivity, the substrate concentration was decreased as compared to the HRP coupled assay in order to get a higher fraction of radioactive product. In the human SSAO assay, benzylamine concentration was 40 μM (0.2 μCi/mL). Data was analysed as above.
row,Structure (SMILES),IC50 [nM]
1,"c1ccc(-n2nc(C3CCOCC3)c3ccncc32)cc1 [Compound 40, 3-(Oxan-4-yl)-1-phenyl-1H-pyrazolo[3,4-c]pyridine]",500 to 2500
2,"NCCC(=O)N1CCC(c2nn(-c3ccc(Cl)cc3)c3cnccc23)CC1 [Compound 93, 3-Amino-1-{4-[1-(4-chlorophenyl)-1H-pyrazolo[3,4-c]pyridin-3-yl]piperidin-1-yl}propan-1-one dihydrochloride]",100 to 500
3,"CN(C)C(=O)N1CCC(c2nn(-c3ccc(Cl)cc3)c3cnccc23)CC1 [Compound 91, 4-[1-(4-Chlorophenyl)-1H-pyrazolo[3,4-c]pyridin-3-yl]-N,N-dimethylpiperidine-1-carboxamide]",100 to 500
4,"Cc1ccc(-n2nc(N3CCC(O)CC3)c3ccncc32)cc1 [Compound 74, 1-[1-(4-Methylphenyl)-1H-pyrazolo[3,4-c]pyridin-3-yl]piperidin-4-ol]",< 100
5,"COC1CCN(c2nn(-c3ccc(C)cc3)c3cnccc23)C1 (centres unmarked) [Compound 50, 3-Methoxy-1-[1-(4-methylphenyl)-1H-pyrazolo[3,4-c]pyridin-3-yl]pyrrolidine]",< 100
6,"Clc1ccc(-n2nc(N3CCNCC3)c3ccncc32)cc1 [Compound 70, 1-[1-(4-Chlorophenyl)-1H-pyrazolo[3,4-c]pyridin-3-yl]piperazine]",500 to 2500
7,"Cc1ccc(-n2nc(N3CCOCC3)c3ccncc32)cc1 [Compound 57, 2,2,2-Trifluoroacetic acid; 4-[1-(4-methylphenyl)-1H-pyrazolo[3,4-c]pyridin-3-yl]morpholine]",< 100
8,"NC1CCN(c2nn(-c3ccc(Cl)cc3)c3cnccc23)CC1 [Compound 71, 1-[1-(4-Chlorophenyl)-1H-pyrazolo[3,4-c]pyridin-3-yl]piperidin-4-amine]",100 to 500
9,"Cc1cc(Cl)ccc1-n1cc(C2CCC(N)CC2)c2ccncc21 (mixture of isomers) [Compound 13, 4-[1-(4-Chloro-2-methylphenyl)-1H-pyrrolo[2,3-c]pyridin-3-yl]cyclohexan-1-amine hydrochloride]",100 to 500
10,"NCCC(=O)N1CCC(c2cn(-c3ccc(Cl)cc3)c3cnccc23)CC1 [Compound 17, 3-Amino-1-{4-[1-(4-chlorophenyl)-1H-pyrrolo[2,3-c]pyridin-3-yl]piperidin-1-yl}propan-1-one hydrochloride]",< 100
11,"Fc1ccc(-n2nc(N3CCOCC3)c3ccncc32)cc1 [Compound 55, 4-[1-(4-Fluorophenyl)-1H-pyrazolo[3,4-c]pyridin-3-yl]morpholine]",100 to 500
12,"Cc1ccc(-n2nc(N3CC4CCC(C3)O4)c3ccncc32)cc1 [Compound 63, 3-[1-(4-Methylphenyl)-1H-pyrazolo[3,4-c]pyridin-3-yl]-8-oxa-3-azabicyclo[3.2.1]octane]",< 100
13,"Cc1ccc(-n2nc(N3CCC(C(N)=O)CC3)c3ccncc32)cc1 [Compound 54, 1-[1-(4-Methylphenyl)-1H-pyrazolo[3,4-c]pyridin-3-yl]piperidine-4-carboxamide]",< 100
14,"CCCCN1CCC(c2nn(-c3ccc(Cl)cc3)c3cnccc23)CC1 [Compound 90, 1-Butyl-4-[1-(4-chlorophenyl)-1H-pyrazolo[3,4-c]pyridin-3-yl]piperidine]",500 to 2500
15,"OCCC1CCN(Cc2cn(-c3ccc(Cl)cc3)c3cnccc23)CC1 [Compound 27, 2-(1-{[1-(4-Chlorophenyl)-1H-pyrrolo[2,3-c]pyridin-3-yl]methyl}piperidin-4-yl)ethan-1-ol]",500 to 2500
16,"Cc1ccc(-n2nc(N3CCOC(C)(C)C3)c3ccncc32)cc1 [Compound 64, 2,2-Dimethyl-4-[1-(4-methylphenyl)-1H-pyrazolo[3,4-c]pyridin-3-yl]morpholine]",< 100
17,"COCCN(C)c1nn(-c2ccc(C)cc2)c2cnccc12 [Compound 69, N-(2-Methoxyethyl)-N-methyl-1-(4-methylphenyl)-1H-pyrazolo[3,4-c]pyridin-3-amine]",100 to 500
18,"Cc1ccc(-n2nc(N3CCOCC3C(N)=O)c3ccncc32)cc1 (centres unmarked) [Compound 77, 4-[1-(4-Methylphenyl)-1H-pyrazolo[3,4-c]pyridin-3-yl]morpholine-3-carboxamide]",500 to 2500
19,"Cc1ccc(-n2cc(C3CCOCC3)c3ccncc32)cc1 [Compound 102, 1-(4-Methylphenyl)-3-(oxan-4-yl)-1H-pyrrolo[2,3-c]pyridine]",< 100
20,"Cc1ccc(-n2nc(N3CCOC(CC(C)C)C3)c3ccncc32)cc1 (centres unmarked) [Compound 61, 4-[1-(4-Methylphenyl)-1H-pyrazolo[3,4-c]pyridin-3-yl]-2-(2-methylpropyl)morpholine]",100 to 500
21,"NCCCC(=O)N1CCC(c2cn(-c3ccc(Cl)cc3)c3cnccc23)CC1 [Compound 105, 2,2,2-Trifluoroacetic acid; 4-amino-1-{4-[1-(4-chlorophenyl)-1H-pyrrolo[2,3-c]pyridin-3-yl]piperidin-1-yl}butan-1-one]",< 100
22,"Clc1ccc(-n2nc(C3CCN(Cc4cc[nH]n4)CC3)c3ccncc32)cc1 [Compound 89, 4-[1-(4-Chlorophenyl)-1H-pyrazolo[3,4-c]pyridin-3-yl]-1-(1H-pyrazol-3-ylmethyl)piperidine]",100 to 500
23,"Cc1ccc(-n2nc(C3COCCN3)c3ccncc32)cc1 (centres unmarked) [Compound 85, 3-[1-(4-Methylphenyl)-1H-pyrazolo[3,4-c]pyridin-3-yl]morpholine]",500 to 2500
24,"NC1CCC(c2cn(-c3ccc(Cl)cc3)c3cnccc23)CC1 (mixture of isomers) [Compound 12, 4-[1-(4-Chlorophenyl)-1H-pyrrolo[2,3-c]pyridin-3-yl]cyclohexan-1-amine hydrochloride]",< 100
25,"Cc1ccc(-n2nc(C3CCOC3)c3ccncc32)cc1 (centres unmarked) [Compound 81, 1-(4-Methylphenyl)-3-(oxolan-3-yl)-1H-pyrazolo[3,4-c]pyridine]",100 to 500
26,"Clc1ccc(-n2nc(N3CCN(Cc4cc[nH]n4)CC3)c3ccncc32)cc1 [Compound 75, 1-[1-(4-Chlorophenyl)-1H-pyrazolo[3,4-c]pyridin-3-yl]-4-(1H-pyrazol-3-ylmethyl)piperazine]",100 to 500
27,"Cc1ccc(-n2nc(N3CCCOCC3)c3ccncc32)cc1 [Compound 67, 4-[1-(4-Methylphenyl)-1H-pyrazolo[3,4-c]pyridin-3-yl]-1,4-oxazepane]",< 100
28,"FC1(F)CCN(c2nn(-c3ccc(Cl)cc3)c3cnccc23)C1 [Compound 48, 1-[1-(4-Chlorophenyl)-1H-pyrazolo[3,4-c]pyridin-3-yl]-3,3-difluoropyrrolidine]",100 to 500
29,"Cc1ccc(-n2nc(N3CCOCC3C(=O)N3CCOCC3)c3ccncc32)cc1 (centres unmarked) [Compound 78, 4-[1-(4-Methylphenyl)-1H-pyrazolo[3,4-c]pyridin-3-yl]-3-[(morpholin-4-yl)carbonyl]morpholine]",500 to 2500
